According to patent US6503881B2 (priority 1996, dated 2003):
Like-named read-outs stand apart in the source and are kept apart here.

Test system: bacterial isolates
Settings: for PIC: with Gentamicin

Substance: W R I W K P K W R L P K W [MBI 11D18CN]
- FIC (Piperacillin + peptide, E. cloacae 10): 0.50
- FIC (Piperacillin + peptide, H. influenzae 3): 0.53
- FIC (Piperacillin + peptide, H. influenzae SB1): 0.52
- FIC (Piperacillin + peptide, P. aeruginosa 23): 0.38
- FIC (Piperacillin + peptide, P. aeruginosa 41): 0.56
- FIC (Piperacillin + peptide, S. aureus 19 MRSA): 0.38
- FIC (Piperacillin + peptide, S. aureus SB2MRSA): 0.50
- FIC (Piperacillin + peptide, S. maltophilia 2): 0.50
- FIC (Piperacillin + peptide, S. marcescens 1): 0.14
- Peptide MIC + Piperacillin (S. aureus 19 MRSA): 1 µg/mL
- Peptide MIC Alone (S. aureus 19 MRSA): 4 µg/mL
- Piperacillin MIC + Peptide (S. aureus 19 MRSA): 16 µg/mL
- Gentamicin MIC + Peptide (S. aureus SA014 MRSA): 2 µg/mL
- Peptide MIC + Gentamicin (S. aureus SA014 MRSA): 0.125 µg/mL
- Peptide MIC Alone (S. aureus SA014 MRSA (Gentamicin section)): 2 µg/mL
- Peptide MIC + Tobramycin (S. aureus SA018 MRSA): 16 µg/mL
- Peptide MIC Alone (S. aureus SA018 MRSA): 32 µg/mL
- Tobramycin MIC + Peptide (S. aureus SA018 MRSA): 4 µg/mL
- Gentamicin MIC + Peptide (S. aureus SA025 MRSA): 1 µg/mL
- Peptide MIC + Gentamicin (S. aureus SA025 MRSA): 0.125 µg/mL
- Peptide MIC Alone (S. aureus SA025 MRSA (Gentamicin section)): 1 µg/mL
- Peptide MIC + Piperacillin (S. aureus SB2MRSA): 0.5 µg/mL
- Peptide MIC Alone (S. aureus SB2MRSA): 2 µg/mL
- Piperacillin MIC + Peptide (S. aureus SB2MRSA): 32 µg/mL
- Gentamicin MIC + Peptide (S. epidermidis SE071): 4 µg/mL
- Peptide MIC + Gentamicin (S. epidermidis SE071): 0.125 µg/mL
- Peptide MIC Alone (S. epidermidis SE071 (Gentamicin section)): 8 µg/mL
- Gentamicin MIC + Peptide (S. epidermidis SE074): 4 µg/mL
- Peptide MIC + Gentamicin (S. epidermidis SE074): 0.125 µg/mL
- Peptide MIC Alone (S. epidermidis SE074 (Gentamicin section)): 4 µg/mL
- Peptide MIC + Tobramycin (S. haemolyticus SHA001): 1 µg/mL
- Peptide MIC Alone (S. haemolyticus SHA001): 2 µg/mL
- Tobramycin MIC + Peptide (S. haemolyticus SHA001): 0.125 µg/mL
- Peptide MIC + Piperacillin (S. maltophilia 2): 8 µg/mL
- Peptide MIC Alone (S. maltophilia 2): 32 µg/mL
- Piperacillin MIC + Peptide (S. maltophilia 2): 16 µg/mL
- Gentamicin MIC + Peptide (S. maltophilia SMA016): 16 µg/mL
- Peptide MIC + Gentamicin (S. maltophilia SMA016): 16 µg/mL
- Peptide MIC Alone (S. maltophilia SMA016 (Gentamicin section)): 64 µg/mL
- Gentamicin MIC + Peptide (S. maltophilia SMA019): 4 µg/mL
- Peptide MIC + Gentamicin (S. maltophilia SMA019): 0.5 µg/mL
- Peptide MIC Alone (S. maltophilia SMA019 (Gentamicin section)): 8 µg/mL
- Peptide MIC + Tobramycin (S. maltophilia SMA027): 16 µg/mL
- Peptide MIC Alone (S. maltophilia SMA027): >128 µg/mL
- Tobramycin MIC + Peptide (S. maltophilia SMA027): 4 µg/mL
- Peptide MIC + Tobramycin (S. maltophilia SMA029): 4 µg/mL
- Peptide MIC Alone (S. maltophilia SMA029): 32 µg/mL
- Tobramycin MIC + Peptide (S. maltophilia SMA029): 4 µg/mL
- Peptide MIC + Piperacillin (S. marcescens 1): 4 µg/mL
- Peptide MIC Alone (S. marcescens 1): >128 µg/mL
- Piperacillin MIC + Peptide (S. marcescens 1): 8 µg/mL
- Mupirocin MIC + Peptide (S. marcescens SBSM1): 100 µg/mL
- Peptide MIC + Mupirocin (S. marcescens SBSM1): 16 µg/mL
- Peptide MIC Alone (S. marcescens SBSM1 (Mupirocin section)): >128 µg/mL
- Mupirocin MIC + Peptide (S. marcescens SBSM2): 100 µg/mL
- Peptide MIC + Mupirocin (S. marcescens SBSM2): 64 µg/mL
- Peptide MIC Alone (S. marcescens SBSM2 (Mupirocin section)): >128 µg/mL
- FIC (Tobramycin + peptide, A. baumannii ABI001): 0.31
- FIC (Tobramycin + peptide, A. baumannii ABI002): 0.53
- FIC (Tobramycin + peptide, S. aureus SA018 MRSA): 0.56
- FIC (Tobramycin + peptide, S. haemolyticus SHA001): 0.53
- FIC (Tobramycin + peptide, S. maltophilia SMA027): 0.19
- FIC (Tobramycin + peptide, S. maltophilia SMA029): 0.16
- FIC (Vancomycin + peptide, E. faecalis EFS001): 0.38
- FIC (Vancomycin + peptide, E. faecalis EFS004): 0.50
- FIC (Vancomycin + peptide, E. faecalis EFS011): 0.50
- FIC (Vancomycin + peptide, E. faecalis EFS012): 0.38
- FIC (Vancomycin + peptide, E. faecalis EFS014): 0.16
- FIC (Vancomycin + peptide, E. faecium EFM004): 0.50
- FIC (Vancomycin + peptide, E. faecium EFM009): 0.52
- FIC (Vancomycin + peptide, E. faecium EFM010): 0.28
- FIC (Vancomycin + peptide, E. faecium EFM011): 0.50
- FIC (with Ciprofloxacin, P. aeruginosa PA24): 0.31
- FIC (with Ciprofloxacin, P. aeruginosa PA77): 0.50
- PIC (A. baumannii ABI001): 0.27
- PIC (A. baumannii ABI002): 0.56
- PIC (E. coli ECO006): 0.27
- PIC (E. faecalis EFS008): 0.19
- PIC (E. faecium EFM004): 0.05
- PIC (K. pneumonia KP020): 0.50
- PIC (P. aeruginosa PA022): 0.52
- PIC (P. aeruginosa PA041): 0.14
- PIC (S. aureus SA014 MRSA): 0.13
- PIC (S. aureus SA025 MRSA): 0.14
- PIC (S. epidermidis SE071): 0.27
- PIC (S. epidermidis SE074): 0.09
- PIC (S. maltophilia SMA016): 0.38
- PIC (S. maltophilia SMA019): 0.19
- FIC (with Mupirocin, E. coli SBECO1): 0.36
- FIC (with Mupirocin, E. coli SBECO2): 0.06
- FIC (with Mupirocin, P. aeruginosa PA4): 0.53
- FIC (with Mupirocin, P. aeruginosa SBPA1): 0.35
- FIC (with Mupirocin, S. marcescens SBSM1): 0.16
- FIC (with Mupirocin, S. marcescens SBSM2): 0.35
